{"source": "patent US20090054376A1", "about": "“BENZOFURAN DERIVATIVES WITH THERAPEUTIC ACTIVITIES” (Pharmos Corporation, priority 2005, published 2009)", "key": {"[1]": {"test_system": "visceral pain writhing responses", "assay": "Visceral pain, acetic acid induced writhing responses", "assay_type": "in vivo, Male ICR mice", "details": "for inhibition in vivo at 2 mg/kg: Mus musculus, iv, read-out: Percent Inhibition of Visceral Pain Writhing Responses; for inhibition in vivo at 2 mg/kg / Percent Inhibition of Visceral Pain Writhing Responses: single dose 2 mg/kg i.v., compared to untreated group"}, "[2]": {"test_system": "TNF-α", "assay": "Cytokine secretion into blood circulation in LPS injected mice, TNF-α", "assay_type": "in vivo, Balb/C female mice", "details": "2 mg/kg i.v., LPS 3 mg/kg i.p., plasma 90 minutes after LPS", "description": "(§1) Balb/C female mice (average body weight 20 g, Harlan, Israel) were injected i.v. at a volume dosage of 5 ml/kg with either vehicle or test compounds at a dose of 2 mg/kg. Each treatment group comprised at least 9 animals. Immediately after compound or control administration, the mice were injected i.p. with 3 mg/kg LPS (E. coli 055:B5, Calbiochem). Ninety minutes after LPS induction, blood samples were collected into heparanized test tubes. Plasma was separated by centrifugation (10,000 rpm for 5 minutes at RT) and stored at −20° C. until assayed. The level of the inflammatory mediator under study, IL-1β, IL-6, IL-10 or TNF-α, was assayed by ELISA techniques.\n(§2) The technique used to quantify the amount of a given protein in a liquid sample, either tissue culture supernatant or body fluid, is based on Enzyme Linked ImmunoSorbent Assay (ELISA) methodology. Either commercially available or established in house, the assay is based on the capture of the protein of interest by specific antibodies bound to the bottom of an ELISA plate well. Unbound material is washed away, the captured protein is then exposed to a secondary antibody generally labeled with horseradish peroxidase (HRP) or alkaline phosphatase (ALP). Again the unbound material is washed away, and the samples are then incubated with the appropriate substrate yielding a colorimetric reaction. The reaction is stopped and reading is performed in a spectrophotometer at the appropriate wavelength. Samples are tested at least in duplicate and the appropriate standard curve, consisting of serial dilutions of the recombinant target protein, is incorporated on each plate. The concentration of the protein in the sample is calculated from the standard curve.\n(§3) The results are expressed as percent inhibition of secretion, taking into account the maximal cytokine concentration in vehicle “treated” animals and the baseline level in naïve animals. […] Inhibition above 50% was considered highly significant."}, "[3]": {"test_system": "IL-10", "assay": "Cytokine secretion into blood circulation in LPS injected mice, IL-10", "assay_type": "in vivo, Balb/C female mice", "details": "2 mg/kg i.v., LPS 3 mg/kg i.p., plasma 90 minutes after LPS", "description": "as §1, §2, §3"}, "[4]": {"test_system": "IL-6", "assay": "Cytokine secretion into blood circulation in LPS injected mice, IL-6", "assay_type": "in vivo, Balb/C female mice", "details": "2 mg/kg i.v., LPS 3 mg/kg i.p., plasma 90 minutes after LPS", "description": "as §1, §2, §3"}, "[5]": {"test_system": "IL-1β", "assay": "Cytokine secretion into blood circulation in LPS injected mice, IL-1β", "assay_type": "in vivo, Balb/C female mice", "details": "2 mg/kg i.v., LPS 3 mg/kg i.p., plasma 90 minutes after LPS", "description": "as §1, §2, §3"}, "[6]": {"test_system": "oxazolone induced DTH, ear thickness", "assay": "Oxazolone induced delayed type hypersensitivity", "assay_type": "in vivo, Male ICR mice", "details": "for decrease in ΔThickness, inhibition as compared to untreated animals: day one after challenge", "description": "Male ICR mice (average body weight 20-25 g, Harlan, Israel) were anesthetized using a mixture of 35 mg/kg ketamine and 8 mg/kg xylazine. The abdomen of the sedated animals was shaved, and the animals were sensitized by topical application of 2% oxazolone in acetone:sesame oil (4:1 volume per volume), 100 μl to the shaved abdomen and 5 μl to each paw. Five days later, the sensitized mice were anesthetized again and their right ear was challenged with 10 μl of 1% oxazolone. Immediately before this challenge, vehicle (5 ml/kg) or test compounds were administered i.v. Each treatment group comprised at least 5 animals. The ear thickness was measured 24 and 48 hours following challenge using a micrometer. The difference in ear thickness (ΔThickness) between the challenged and non-challenged ear was calculated. The average ΔThickness and SEM were calculated on each day following challenge (baseline) for all treatment groups."}, "[7]": {"biological_target": "T1, Human CB1 Receptor (Homo sapiens, UniProt P21554)", "T1 construct": "expressed in transfected cells; host or cells: HEK-293 cells (membranes)", "T1 sequence (P21554 whole entry)": "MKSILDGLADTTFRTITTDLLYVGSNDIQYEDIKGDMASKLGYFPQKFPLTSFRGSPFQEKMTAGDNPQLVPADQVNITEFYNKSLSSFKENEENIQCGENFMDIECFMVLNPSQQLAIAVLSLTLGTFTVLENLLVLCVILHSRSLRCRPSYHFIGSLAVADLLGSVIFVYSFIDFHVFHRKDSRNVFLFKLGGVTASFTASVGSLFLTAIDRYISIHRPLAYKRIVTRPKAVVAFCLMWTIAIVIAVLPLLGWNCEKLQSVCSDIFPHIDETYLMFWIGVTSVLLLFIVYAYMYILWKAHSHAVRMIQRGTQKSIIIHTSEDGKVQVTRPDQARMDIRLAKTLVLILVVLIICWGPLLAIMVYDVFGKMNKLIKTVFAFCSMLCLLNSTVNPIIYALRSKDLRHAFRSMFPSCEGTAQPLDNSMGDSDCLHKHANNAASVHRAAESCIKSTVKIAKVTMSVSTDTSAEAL", "assay": "[35S]GTPγS-binding assay, hCB1", "assay_type": "biochemical", "details": "NB = no binding"}}, "data": [{"smiles": "CCCCC(C)(C)c1cc(O)c2c(c1)OC1C2CCC(C)(C)C1O", "note": "(centres unmarked) [Compound C6S-7, 3-(1,1-dimethylpentyl)-7,7-dimethyl-5a,6,7,8,9,9a-hexahydro-dibenzofuran-1,6-diol]", "values": [{"measurement": "inhibition in vivo at 2 mg/kg", "setting": "[1]", "value": 40, "unit": "%"}]}, {"smiles": "CCCCCCC(C)(C)c1cc(O)c2c(c1)OC1(C)CCCC21", "note": "(stereo not drawn) [Compound C5S-2, 6-(1,1-dimethylheptyl)-8a-methyl-2,3,3a,8a-tetrahydro-1H-8-oxa-cyclo-penta[α]inden-4-ol]", "values": [{"measurement": "Inhibition of cytokine secretion into blood circulation, TNF-α", "setting": "[2]", "value": 38, "unit": "%"}, {"measurement": "Inhibition of cytokine secretion into blood circulation, IL-10", "setting": "[3]", "value": 64, "unit": "%"}, {"measurement": "Inhibition of cytokine secretion into blood circulation, IL-6", "setting": "[4]", "value": "NO (NO indicates that the compound tested did not significantly affect the level of cytokine in plasma of LPS injected mice and that its activity is comparable to vehicle, within ±20% from this control)"}, {"measurement": "Inhibition of cytokine secretion into blood circulation, IL-1β", "setting": "[5]", "value": 53, "unit": "%"}, {"measurement": "Percent Inhibition of Visceral Pain Writhing Responses", "setting": "[1]", "value": 72, "unit": "%"}]}, {"smiles": "CCCCC(C)(C)c1cc(O)c2c(c1)OC1(C)CCCC21", "note": "(stereo not drawn) [Compound C5S-1, 6-(1,1-dimethylpentyl)-8a-methyl-2,3,3a,8a-tetrahydro-1H-8-oxa-cyclopenta[α]inden-4-ol]", "values": [{"measurement": "Inhibition of cytokine secretion into blood circulation, TNF-α", "setting": "[2]", "value": 77, "unit": "%"}, {"measurement": "Inhibition of cytokine secretion into blood circulation, IL-10", "setting": "[3]", "value": 75, "unit": "%"}, {"measurement": "Inhibition of cytokine secretion into blood circulation, IL-6", "setting": "[4]", "value": 28, "unit": "%"}, {"measurement": "Inhibition of cytokine secretion into blood circulation, IL-1β", "setting": "[5]", "value": 41, "unit": "%"}, {"measurement": "Percent Inhibition of Visceral Pain Writhing Responses", "setting": "[1]", "value": 41, "unit": "%"}]}, {"smiles": "CCCCCCC(C)(C)c1cc(O)c2c3c(oc2c1)C(=O)CCC3(C)C", "note": "[Compound C6M-9, 7-(1,1-Dimethylheptyl)-9-hydroxy-1,1-dimethyl-2,3-dihydro-1H-dibenzofuran-4-one]", "values": [{"measurement": "inhibition in vivo at 2 mg/kg", "setting": "[1]", "value": 38, "unit": "%"}]}, {"smiles": "CCCCCCC(C)(C)c1cc(O)c2c(c1)OC1C(O)CCCCC21", "note": "(stereo not drawn) [Compound C7S-2, 2-(1,1-dimethylheptyl)-5,6,7,8,9,9a-hexahydro-4bH-10-oxa-benzo[α]azulen-4,9-diol]", "values": [{"measurement": "Difference in Ear Thickness, Baseline, Mean", "setting": "[6]; 0.5 mg/kg IV", "value": "3.66 ×10^−2 mm"}, {"measurement": "Difference in Ear Thickness, Day 1, Mean", "setting": "[6]; 0.5 mg/kg IV", "value": "8.18 ×10^−2 mm"}, {"measurement": "Difference in Ear Thickness, Day 2, Mean", "setting": "[6]; 0.5 mg/kg IV", "value": "5.90 ×10^−2 mm"}, {"measurement": "decrease in ΔThickness, inhibition as compared to untreated animals", "setting": "[6]; 0.5 mg/kg i.v.", "value": 29, "unit": "%"}, {"measurement": "EC50", "setting": "[7]", "value": 359, "unit": "nM"}, {"measurement": "Emax", "setting": "[7]; upper plateau of curve", "value": 50, "unit": "%"}, {"measurement": "inhibition of writhing responses", "setting": "[1]; 0.075 mg/kg i.v., compared to vehicle", "value": 28, "unit": "%"}, {"measurement": "inhibition of writhing responses", "setting": "[1]; 0.1 mg/kg i.v.", "value": 74, "unit": "%"}, {"measurement": "inhibition of writhing responses", "setting": "[1]; 0.25 mg/kg i.m.", "value": 35, "unit": "%"}, {"measurement": "inhibition of writhing responses", "setting": "[1]; 0.5 mg/kg i.m.", "value": 90, "unit": "%"}, {"measurement": "inhibition of pain responses", "setting": "[1]; 0.5 mg/kg i.v.", "value": "totally eradicated pain responses"}, {"measurement": "inhibition of pain response", "setting": "[1]; 1 mg/kg i.m.", "value": "totally abrogated the pain response"}, {"measurement": "inhibition of writhing responses", "setting": "[1]; 10 mg/kg p.o.", "value": 58, "unit": "%"}, {"measurement": "inhibition of writhing responses", "setting": "[1]; 20 mg/kg p.o.", "value": 83, "unit": "%"}, {"measurement": "fold more potent than morphine", "setting": "[1]; IC50 in visceral pain, i.v.", "value": 12, "unit": "fold"}, {"measurement": "inhibition in vivo at 2 mg/kg", "setting": "[1]", "value": "> 90", "unit": "%"}, {"measurement": "IC50 in visceral pain", "setting": "[1]; i.m. administration, calculated", "value": "about 0.27 mg/kg"}, {"measurement": "IC50 in visceral pain", "setting": "[1]; i.v., estimated or calculated from dose range", "value": 0.09, "unit": "mg/kg"}, {"measurement": "IC50 in visceral pain", "setting": "[1]; p.o. administration, calculated", "value": "about 6.6 mg/kg"}, {"measurement": "IC50 in visceral pain", "setting": "[1]; subcutaneously, estimated", "value": "about 1 mg/kg"}]}, {"smiles": "CCCCC(C)(C)c1cc(O)c2c(c1)OC1CCCCC21", "note": "(centres unmarked) [Compound C6S-3, 3-(1,1-dimethylpentyl)-5a,6,7,8,9,9a-hexahydro-dibenzofuran-1-ol]", "values": [{"measurement": "Inhibition of cytokine secretion into blood circulation, TNF-α", "setting": "[2]", "value": 78, "unit": "%"}, {"measurement": "Inhibition of cytokine secretion into blood circulation, IL-10", "setting": "[3]", "value": 79, "unit": "%"}, {"measurement": "Difference in Ear Thickness, Baseline, Mean", "setting": "[6]; 2 mg/kg IV", "value": "3.76 ×10^−2 mm"}, {"measurement": "Difference in Ear Thickness, Day 1, Mean", "setting": "[6]; 2 mg/kg IV", "value": "8.64 ×10^−2 mm"}, {"measurement": "Difference in Ear Thickness, Day 2, Mean", "setting": "[6]; 2 mg/kg IV", "value": "5.78 ×10^−2 mm"}, {"measurement": "decrease in ΔThickness, inhibition as compared to untreated animals", "setting": "[6]; 2 mg/kg i.v.", "value": 25, "unit": "%"}, {"measurement": "Inhibition of cytokine secretion into blood circulation, IL-6", "setting": "[4]", "value": "NO (NO indicates that the compound tested did not significantly affect the level of cytokine in plasma of LPS injected mice and that its activity is comparable to vehicle, within ±20% from this control)"}, {"measurement": "Inhibition of cytokine secretion into blood circulation, IL-1β", "setting": "[5]", "value": "NO (NO indicates that the compound tested did not significantly affect the level of cytokine in plasma of LPS injected mice and that its activity is comparable to vehicle, within ±20% from this control)"}]}, {"smiles": "CCCCCCC(C)(C)c1cc(O)c2c(c1)OC1C=CCCC21", "note": "(centres unmarked) [Compound C6S-2, 3-(1,1-Dimethylheptyl)-5a,8,9,9a-tetrahydro-dibenzofuran-1-ol]", "values": [{"measurement": "Inhibition of cytokine secretion into blood circulation, TNF-α", "setting": "[2]", "value": "NO (NO indicates that the compound tested did not significantly affect the level of cytokine in plasma of LPS injected mice and that its activity is comparable to vehicle, within ±20% from this control)"}, {"measurement": "Inhibition of cytokine secretion into blood circulation, IL-10", "setting": "[3]", "value": 68, "unit": "%"}, {"measurement": "Inhibition of cytokine secretion into blood circulation, IL-6", "setting": "[4]", "value": "NO (NO indicates that the compound tested did not significantly affect the level of cytokine in plasma of LPS injected mice and that its activity is comparable to vehicle, within ±20% from this control)"}, {"measurement": "Inhibition of cytokine secretion into blood circulation, IL-1β", "setting": "[5]", "value": 56, "unit": "%"}]}]}
